Read-outs that look alike come from different tables or passages of the source.
Target: T1, full-length beta-Catenin (Uniprot ID P35222) (Homo sapiens, UniProt P35222)
T1 construct: 10 nM full-length beta-Catenin (Uniprot ID P35222)
T1 sequence (P35222 1-781): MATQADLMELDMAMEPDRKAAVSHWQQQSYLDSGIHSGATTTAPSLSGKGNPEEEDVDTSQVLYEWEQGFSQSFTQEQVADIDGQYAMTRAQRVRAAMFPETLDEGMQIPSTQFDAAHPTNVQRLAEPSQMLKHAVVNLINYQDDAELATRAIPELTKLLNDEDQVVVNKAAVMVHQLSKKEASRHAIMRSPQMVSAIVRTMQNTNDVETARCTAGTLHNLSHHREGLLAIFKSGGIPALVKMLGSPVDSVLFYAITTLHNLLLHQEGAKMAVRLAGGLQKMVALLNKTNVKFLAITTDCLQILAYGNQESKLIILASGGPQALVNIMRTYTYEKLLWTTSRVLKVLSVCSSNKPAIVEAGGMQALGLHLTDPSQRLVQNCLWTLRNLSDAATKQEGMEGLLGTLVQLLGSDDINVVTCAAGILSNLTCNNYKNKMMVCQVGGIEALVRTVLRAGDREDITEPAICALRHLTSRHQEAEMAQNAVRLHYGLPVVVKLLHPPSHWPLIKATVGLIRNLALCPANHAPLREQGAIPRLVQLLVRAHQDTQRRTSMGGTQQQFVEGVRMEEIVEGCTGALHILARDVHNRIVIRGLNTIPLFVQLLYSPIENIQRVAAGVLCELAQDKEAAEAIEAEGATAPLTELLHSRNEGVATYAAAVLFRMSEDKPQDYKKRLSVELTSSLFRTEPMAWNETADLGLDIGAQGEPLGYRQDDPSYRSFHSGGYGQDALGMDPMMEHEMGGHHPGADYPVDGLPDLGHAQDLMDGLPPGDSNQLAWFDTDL
Experiment: Fluorescence polarization IC50 (beta-catenin / 5FAM-TCF4 10-53 competition)
Type: binding
Conditions: fluorescence polarization

SMILES	IC50 (read-out: beta-Catenin FP IC50) [nM]	IC50 (beta-Catenin FP IC50 (nM)) [nM]
CC(=O)N1CCC[C@]12CC=CCCCC1(CCCC=CCCCOC(=O)N3CC[C@@](C(=O)N[C@@H](Cc4ccsc4)C(=O)N[C@@H](Cc4csc5ccccc45)C(=O)N[C@@H](CC(N)=O)C(=O)N[C@@H](C)C(=O)N[C@@H](C)C(=O)N[C@@H](C)C(=O)N[C@@H](C)C(=O)N[C@@H](C)C(=O)N[C@@H](C)C(=O)N[C@@H](C)C(=O)N[C@@H](C)C(=O)N[C@@H](C)C(N)=O)(C3)NC(=O)[C@H](CC(C)C)NC(=O)[C@H](Cc3ccccc3)NC(=O)[C@H](C)NC(=O)[C@H](C)NC(=O)[C@H](Cc3cccc(C(=O)O)c3)NC(=O)[C@H](CC(=O)O)NC1=O)NC(=O)[C@H](CC(C)(C)C)NC(=O)[C@H](CC(=O)O)NC2=O (stereo partly drawn) [I-2270]		40
C[C@@H]1NC(=O)[C@H](C)NC(=O)[C@H](CC(=O)O)NC(=O)[C@H](CC(=O)O)NC(=O)C2(CCCC=CCCCOC(=O)N3CC[C@@](C(=O)N[C@@H](Cc4ccsc4)C(=O)N[C@@H](Cc4csc5ccccc45)C(=O)N[C@@H](Cc4c[nH]cn4)C(N)=O)(C3)NC(=O)[C@H](CCC(N)=O)NC(=O)[C@H](Cc3ccccc3)NC1=O)CCCC=CC[C@]1(CCCN1C(=O)CBr)C(=O)N[C@@H](CC(=O)O)C(=O)N[C@@H](CC(C)(C)C)C(=O)N2 (stereo partly drawn) [I-2285, BrAc-PL3-Asp-Npg-B5-Asp-Asp-Ala-Ala-Phe-Gln-PyrS2-3Thi-BztA-His-NH2]		94
CC(C)C[C@@H]1NC(=O)[C@H](Cc2ccccc2)NC(=O)[C@H](C)NC(=O)[C@H](C)NC(=O)[C@H](Cc2cccc(C(=O)O)c2)NC(=O)[C@H](CC(=O)O)NC(=O)C2(CCCC=CCCCOC(=O)N3CC[C@@](C(=O)N[C@@H](Cc4ccccc4Cl)C(=O)N[C@@H](Cc4csc5ccccc45)C(=O)N[C@@H](C)C(N)=O)(C3)NC1=O)CCCC=CC[C@]1(CCCN1C(=O)CBr)C(=O)N[C@@H](CC(=O)O)C(=O)N[C@@H](CC(C)(C)C)C(=O)N2 (stereo partly drawn) [I-2286, BrAc-PL3-Asp-Npg-B5-Asp-3COOHF-Ala-Ala-Phe-Leu-PyrS2-2C1F-BztA-Ala-NH2]		88

More lines, main results first:

IC50 (read-out: beta-Catenin FP IC50) [nM]	SMILES	IC50 (beta-Catenin FP IC50 (nM)) [nM]
499	CC(C)C[C@@H]1NC(=O)[C@H](Cc2ccccc2)NC(=O)[C@H](C)NC(=O)[C@H](C)NC(=O)[C@H](CN(CC(=O)O)CC(F)(F)F)NC(=O)[C@H](CC(=O)O)NC(=O)C2(CCCCCCCCOC(=O)N3CC[C@@](C(=O)N[C@@H](Cc4ccsc4)C(=O)N[C@@H](Cc4csc5ccccc45)C(=O)N[C@@H](CCC(N)=O)C(N)=O)(C3)NC1=O)CCCCCCS(=O)(=O)N1CCC[C@@H]1C(=O)N[C@@H](CC(=O)O)C(=O)N[C@@H](CC(C)(C)C)C(=O)N2 (stereo partly drawn) [I-2267, ProSAm3-Asp-Npg-B5-Asp-TfeGA-Ala-Ala-Phe-Leu-PyrS2-3Thi-BztA-Gln-NH2]	
511	CCCCOC(=O)N1CCC[C@]12CC=CCCCC1(CCCC=CCCCOC(=O)N3CC[C@@](C(=O)N[C@@H](Cc4ccccc4Cl)C(=O)N[C@@H](Cc4csc5ccccc45)C(=O)N[C@@H](C)C(N)=O)(C3)NC(=O)[C@H](CC(C)C)NC(=O)[C@H](Cc3ccccc3)NC(=O)[C@H](C)NC(=O)[C@H](C)NC(=O)[C@H](Cc3cccc(C(=O)O)c3)NC(=O)[C@H](CC(=O)O)NC1=O)NC(=O)[C@H](CC(C)(C)C)NC(=O)[C@H](CC(=O)O)NC2=O (stereo partly drawn) [I-2304, CO2Bu-PL3-Asp-Npg-B5-Asp-3COOHF-Ala-Ala-Phe-Leu-PyrS2-2C1F-BztA-Ala-NH2]	
83	COC(=O)N1CCC[C@]12CC=CCCCC1(CCCC=CCCCOC(=O)N3CC[C@@](C(=O)N[C@@H](Cc4ccccc4Cl)C(=O)N[C@@H](Cc4csc5ccccc45)C(=O)N[C@@H](C)C(N)=O)(C3)NC(=O)[C@H](CC(C)C)NC(=O)[C@H](Cc3ccccc3)NC(=O)[C@H](C)NC(=O)[C@H](C)NC(=O)[C@H](Cc3cccc(C(=O)O)c3)NC(=O)[C@H](CC(=O)O)NC1=O)NC(=O)[C@H](CC(C)(C)C)NC(=O)[C@H](CC(=O)O)NC2=O (stereo partly drawn) [I-2324, CO2Me-PL3-Asp-Npg-B5-Asp-3COOHF-Ala-Ala-Phe-Leu-PyrS2-2C1F-BztA-Ala-NH2]	

From patent US20240116985A1, “STAPLED PEPTIDES AND METHODS THEREOF” (priority 2020, published 2024)
